These results are taken from patent publication US20220249523A1, “BENZOAZEPINE COMPOUND-CONTAINING FREEZE-DRIED COMPOSITION” (OTSUKA PHARMACEUTICAL CO., LTD., priority 2019, published 2022).

Common to all, as to assay type: physicochemical
Data set [1] can be described thus: Stability of metal salts of compound (1) in a solid state. The settings on record: compared to compound (1). The protocol:
(§1) The stability of these metal salts in a solid state was analyzed. […] Additionally, the solubility in water was analyzed.

A short description of data set [2]: Solubility in water of compound (1) and its metal salts. The protocol:
as §1

The nature of data set [3]: Stability of phosphate ester bond in aqueous solution on high-pressure steam sterilization (HPLC area normalization). To be noted: 0.1 w/v % aqueous solution, 121° C., 20 minutes. As for the experimental part:
Aqueous solutions containing compound (1) at a concentration of 0.1 w/v % were prepared, and the stability of the aqueous solutions when subjected to high-pressure steam sterilization (121° C., 20 minutes) was analyzed. The aqueous solutions were prepared using a 100 mM sodium phosphate buffer or a 100 mM Tris buffer. The pH of the aqueous solutions prepared using each of the buffers was adjusted with sodium hydroxide to prepare solutions with different pHs. After the treatment, the purity of compound (1) and the amount of tolvaptan produced were determined by the HPLC area normalization method.

Data set [4] is described as follows: Storage stability of freeze-dried compositions: amount of tolvaptan produced (HPLC area normalization). The settings on record: for Amount of tolvaptan produced: freeze-dried composition, compound (1) 0.1 w/v %; for Amount of tolvaptan produced / Amount of tolvaptan produced (%): 60° C. for 1 month; for Amount of tolvaptan produced (%): freeze-dried. The protocol: Aqueous solutions containing compound (1) (0.1 w/v %), mannitol (4 w/v %), and sodium hydroxide (q.s.) were prepared (pH 7, 7.5, 8, 8.5, or 9) using a 20 mM disodium hydrogen phosphate buffer.
The aqueous solutions were each placed in a 2-mL glass vial, and frozen to a temperature of −40° C. or lower. Thereafter, the vials were depressurized to vacuum, and water was removed during freeze-drying to thus obtain freeze-dried compositions. The resulting products were stored at 40° C. for 3 months, or at 60° C. for 1 month; and then reconstituted with the same amount of water as that removed by freeze-drying, to return the products back to aqueous solutions. The amount of total degradation products or tolvaptan produced (%) in each of the obtained aqueous solutions was determined by the HPLC area normalization method.
Freeze-dried compositions were prepared in the same manner as in the “Analysis 1: Stability of Freeze-Dried Formulation of Compound (1)” section above using additives other than mannitol, i.e., NaCl, sorbitol, sucrose, maltose, trehalose, or lactose. Here, the pH of the aqueous solutions before preparing freeze-dried compositions was adjusted to 8.5. However, for lactose, the pH of the aqueous solution before preparing a freeze-dried composition was adjusted to 9.0 with a 24 mM sodium hydrogen carbonate buffer.
After the obtained freeze-dried compositions were stored at 60° C. for 1 month, the amount of tolvaptan produced was determined by the HPLC area normalization method, and the stability of compound (1) in each composition was analyzed. […] The reduction was particularly remarkable with sucrose, maltose, and lactose. Additionally, after storage at 60° C. for 1 week of the aqueous solutions before preparing freeze-dried compositions, the stability of compound (1) in each composition was analyzed. […] The results confirmed that the use of maltose or lactose increased the amount of tolvaptan produced (%).
Aqueous solutions with a pH of 7.5, 8, 8.5, or 9 were prepared in the same manner as in the “Analysis 2: Stability of Freeze-Dried Formulation of Compound (1)” section above, except that compound A at a concentration of 0.541 w/v % and sucrose at a concentration of 7.5 w/v % were used. The resulting aqueous solutions were freeze-dried to obtain freeze-dried compositions. The freeze-dried compositions were stored at 60° C. for 1 month. Thereafter, the amount of tolvaptan produced (%) was determined by the HPLC area normalization method.
An aqueous solution with a pH of 8.5 was prepared in the same manner as in the “Analysis 1: Stability of Freeze-Dried Formulation of Compound A” section above, using potassium phosphate instead of sodium phosphate as a buffering agent. Further, a freeze-dried composition was prepared to analyze the stability of compound A in the freeze-dried composition (after storage at 60° C. for 1 month). The amount of tolvaptan produced (%) was 0.07%, which was the same as when sodium phosphate was used.
Aqueous solutions with a pH of 8.0 were prepared in the same manner as in the “Analysis 1: Stability of Freeze-Dried Formulation of Compound A” section above, such that the sucrose concentration was 1%, 2%, 4%, or 7.5%. Further, the freeze-dried compositions were prepared to analyze the stability of compound A in the freeze-dried compositions (after storage at 60° C. for 1 month). The amount of tolvaptan produced (%) was 0.25% when the sucrose concentration was 1%, 0.12% when the sucrose concentration was 2%, 0.08% when the sucrose concentration was 4%, and 0.10% when the sucrose concentration was 7.5%.
In addition to the aqueous solution containing sodium phosphate at a concentration of 20 mM and having a pH of 8.5, aqueous solutions containing sodium phosphate at a concentration of 10 mM or 50 mM were also prepared as in the same manner as the “Analysis 1: Stability of Freeze-Dried Formulation of Compound A” section above. […]

The nature of data set [5]: pH at reconstitution with water of stored freeze-dried compositions. To be noted: initial pH 8.5. The protocol:
In addition to the aqueous solution containing sodium phosphate at a concentration of 20 mM and having a pH of 8.5, aqueous solutions containing sodium phosphate at a concentration of 10 mM or 50 mM were also prepared as in the same manner as the “Analysis 1: Stability of Freeze-Dried Formulation of Compound A” section above. Further, freeze-dried compositions were prepared to analyze the stability of compound A in the freeze-dried compositions (after storage at 60° C. for 1 month, or at 40° C. for 3 months). Thereafter, the pH at the time of reconstitution with water was analyzed.

Data set [6] is described as follows: Appearance on reconstitution of freeze-dried compositions with water (foaming, cloudiness). The settings on record: freeze-dried compositions with a sucrose concentration of 4% or 7.5%, pH 8.0.

Consider `[O-][n+]1ccccc1[S-].[O-][n+]1ccccc1[S-].[Zn+2]` [Zinc salt], for which the “Stability in a solid state” value in data set [1] was “remarkably improved stability”. For the same compound, the Solubility in water in data set [2] came out at 0.003 w/v %.

As for `Cc1ccccc1C(=O)Nc1ccc(C(=O)N2CCCC(OP(=O)(O)O)c3cc(Cl)ccc32)c(C)c1` (stereo not drawn) [compound (1)], the Solubility in water in data set [2] is listed as 0.14 w/v %. For the same compound, the “Stability of phosphate ester bond on high-pressure steam sterilization” value is recorded as “highly stable” in data set [3] (sodium phosphate buffer having a pH of 7.5 or more) and “hydrolyzed” in data set [3] (tolvaptan formed as a precipitate). Further, the “Amount of tolvaptan produced” value worked out at 1.45% in data set [4] (mannitol 4 w/v %, solution pH 8.5) and 0.9% in data set [4] (mannitol 4 w/v %, solution pH 9). In addition, the “Stability in freeze-dried compositions” value in data set [4] (mannitol 4 w/v %, solutions with a pH exceeding 8, storage at 60° C.) is on record as “relatively stable”.

For `Cc1ccccc1C(=O)Nc1ccc(C(=O)N2CCCC(OP(=O)([O-])[O-])c3cc(Cl)ccc32)c(C)c1.[Na+].[Na+]` (stereo not drawn) [compound A], in data set [1], the “Stability in a solid state” value is reported as “remarkably improved stability”. The Solubility in water in data set [2] was not below 4 w/v %. For the same compound, the “pH at 40° C. 3 months later” value in data set [5] (sodium phosphate 10 mM) is recorded as 8.16; in data set [5] (sodium phosphate 20 mM), 8.24; in data set [5] (sodium phosphate 50 mM), 8.30. The entries for the “pH at 60° C. 1 month later” value in data set [5] (sodium phosphate 10 mM), in data set [5] (sodium phosphate 20 mM) and in data set [5] (sodium phosphate 50 mM) were 8.24, 8.34 and 8.36, respectively. Further, the “Amount of tolvaptan produced (%)” value was 0.22% in data set [4] (compound A 0.541 w/v %, sucrose 7.5 w/v %, 20 mM sodium phosphate, pH 7.5); 0.10% in data set [4] (compound A 0.541 w/v %, sucrose 7.5 w/v %, 20 mM sodium phosphate, pH 8); 0.07% in data set [4] (compound A 0.541 w/v %, sucrose 7.5 w/v %, 20 mM sodium phosphate, pH 8.5); “below the detection limit” in data set [4] (compound A 0.541 w/v %, sucrose 7.5 w/v %, 20 mM sodium phosphate, pH 9); 0.25% in data set [4] (compound A, pH 8.0, sucrose concentration 1%); 0.12% in data set [4] (compound A, pH 8.0, sucrose concentration 2%). In addition, the “Amount of tolvaptan produced (%)” value is 0.08% in data set [4] (compound A, pH 8.0, sucrose concentration 4%); 0.07% in data set [4] (compound A, sucrose 7.5 w/v %, pH 8.5, sodium phosphate 10 mM); “below the detection limit” in data set [4] (compound A, sucrose 7.5 w/v %, pH 8.5, sodium phosphate 50 mM); 0.07% in data set [4] (compound A, sucrose 7.5 w/v %, potassium phosphate instead of sodium phosphate, pH 8.5). In addition, the “Appearance when reconstituted with water” value in data set [6] is “foaming and slight cloudiness were observed”.
